{"source": "patent US8198285B2", "about": "“Pyrazine derivatives” (Astrazeneca AB, priority 2010, dated 2012)", "system": "female CRL:CD rats", "assay": "Bone densitometry (pQCT) of right femur in rats", "format": "in vivo, rat", "details": "oral once a day, 14 consecutive days, 15 mg/kg", "method": "For in vitro osteogenesis, human adipose-derived stem cells (hADSC) (Invitrogen, UK; catalogue number R7788-115) were seeded into 12-well plates at a density of 5000 cells/cm^2 and were cultured in a basal media of phenol red-free Dulbecco's Modified Eagles Medium (DMEM; Sigma-Aldrich, UK; catalogue number D1145) supplemented with 5% fetal bovine serum (FBS, Gibco, UK; catalogue number 10270) and 2 mM GlutaMax® (Gibco; catalogue number 35050). […] The formation of mineralized bone nodules was assessed during the time-course using Alizarin Red S staining. […] The amount of mineralisation was quantified through the extraction of the Alizarin Red S stain from bone nodules using a cetylpyridinium chloride extraction method, previously described (Gregory et al., Analytical Biochemistry, 2004, 329: 77-84; Hwang et al., Stem Cells and Development 17: 963-970, 2008). […] Following incubation, 200 μl aliquots were transferred to 96-well format and the absorbance at 550 nm was determined using a microplate spectrophotometer (SpectraMax Plus, Molecular Devices, USA). Data were expressed as mean absorbance at 550 nm±Standard error of mean (SEM). […] Data are shown as mean absorbance at 550 nm and analysed using one-way ANOVA followed by Tukey's multiple comparison post hoc test: n=9; ***, P<0.001. […]", "note": "Structures can show the parent of a compound that is named as a salt.", "data": [{"smiles": "COCCCNCCCc1ccc(-c2cnc(N)c(C(=O)Nc3cccnc3)n2)cc1", "note": "[Example 1, 3-Amino-6-(4-{3-[(3-methoxypropyl)amino]propyl}phenyl)-N-pyridin-3-ylpyrazine-2-carboxamide tri-hydrochloride]", "values": [{"measurement": "Increase in right femur metaphysis total BMD compared with vehicle treated rats", "result": 6.6, "unit": "%"}, {"measurement": "Total BMD in femur (mean±SEM)", "result": "814.41 ± 15", "unit": "mg/mL"}]}]}
